# Marks after values point to notes of the source that are not given here.
# T1: Human CD19 (human, UniProt P15391 20-556)
# T1 sequence: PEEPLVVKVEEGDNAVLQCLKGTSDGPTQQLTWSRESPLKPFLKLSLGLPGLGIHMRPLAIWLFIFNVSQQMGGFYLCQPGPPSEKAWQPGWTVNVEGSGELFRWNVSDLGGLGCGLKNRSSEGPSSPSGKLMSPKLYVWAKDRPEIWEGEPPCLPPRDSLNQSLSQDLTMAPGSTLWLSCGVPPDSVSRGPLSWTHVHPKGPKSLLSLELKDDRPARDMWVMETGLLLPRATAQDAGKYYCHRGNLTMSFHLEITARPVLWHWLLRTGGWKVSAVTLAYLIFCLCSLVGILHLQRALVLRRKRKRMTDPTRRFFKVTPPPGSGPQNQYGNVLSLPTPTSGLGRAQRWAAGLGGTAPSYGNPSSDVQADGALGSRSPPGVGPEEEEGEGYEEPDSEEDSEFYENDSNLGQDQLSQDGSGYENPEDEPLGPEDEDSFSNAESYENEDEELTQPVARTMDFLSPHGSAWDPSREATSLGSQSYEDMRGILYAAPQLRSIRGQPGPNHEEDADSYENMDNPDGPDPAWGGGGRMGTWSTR
# Tests used:
# [1] = tested on: RAMOS human Burkitt's lymphoma cells; assay: Human Non-Hodgkin RAMOS tumor in SCID mice, survival model; format: in vivo; conditions: for Median Survival (Days Post-Inoculation): treatment related deaths excluded; for Median % Increase in Lifespan (ILS): vs. vehicle control/Ref_mAb_33; for Survival, pairwise comparison (Holm-Sidak) vs. Group 3: Group 3 = Bendamustine (16 mg/kg), listed as Bendamustine = 13 mg/kg
# Description: Cyclophosphamide (Baxter, Lot. No. 1A548C); Vehicle Control: 0.9% sodium chloride, 25 mg/ml mannitol, pH 6.5-6.8 (adjusted with 0.01 M NaOH); SCID Mice (University of Adelaide, Waite Campus, Urrbaraie, SA, Australia, Strain C.B.-17-Igh-1^b-Prkdc^scid); RAMOS human Burkitt's lymphoma cells (ATCC number CRL-1596); Ref_mAb_33_IgG_Xen (10 mg/mL in PBS, referred to as Ref_mAb_33); Bendamustine (Mundipharma, Lot No. 83889).
# SCID mice were pre-treated with Cyclophosphamide (75 mg/kg, i.p., twice daily) for two days prior to RAMOS cell inoculation (Day −2 and −1). On the day of inoculation (Day 0), the mice were separated into seven groups of ten mice each, and inoculated with 1×10^6 RAMOS cells each intravenously into the tail vein. The planned dosing regimen for each group is shown in Table 5 and commenced on Day 3. The study duration was 60 days.
# From the raw data shown in Table 6, both the median survival in days and median increase in lifespan were calculated. All treatment related deaths were excluded in the calculations.
# Median % Increased Lifespan (ILS) is calculated as follows: […]
# The classification of the MOR000208/Bendamustine combination therapy (combo) effect was evaluated by comparing the ILS of the combination with the added ILS of the respective monotherapies:
# Synergy/Potentiation*: ILSCombo>ILSMOR00208 3 mg/kg+ILSBendamustine. Synergistic effects are classified as potentiation if at least one of the monotherapies has no effect. Additivity: ILSCombo=ILSMOR00208 3 mg/kg+ILSBendamustine. Antagonism: ILSCombo<ILSMOR00208 3 mg/kg+ILSBendamustine.
# In addition to an analysis of the data for purposes of identifying synergy, the following statistical analysis was also completed. Statistical analyses were carried out using the median values. Any animal that died unexpectedly or was culled prior to Day 17 of the study in the Test Article treatment groups was excluded from survival analysis calculation. The death/culling of these animals was attributed to compound toxicity rather than disease progression as they occurred well in advance of the first deaths in the Vehicle Control animals. A survival curve was created using the product limit of Kaplan and Meier, and survival curves compared using the log-rank (Mantel-Cox) test. Where significant differences were found, All Pairwise Multiple Comparison (Holm-Sidak Test) was performed. Comparison was done between all groups. In addition the comparison of the following groups were summarised in separate figures for each test article: Vehicle Control/Ref_mAb (group 10) against Bendamustine groups (Groups 2, 3 and 4) and Vehicle Control/Ref_mAb (group 10) against Combination groups (Groups 5 and 6) or respective MOR00208 monotherapy group (group 1). A p value of less than 0.05 was considered significant.
# [2] = tested on: MEC-1 cells; assay: Cytotoxicity/ADCC cell killing of MEC-1 cells with PBMCs (FACS, propidium iodide); format: cell-based, human; conditions: for normalized specific killing: combination set to 1, Bendamustine 100 μg/ml, MOR00208 6.6 pM; for % dead cells: MOR00208 6.6 pm, BEN 100 μg/ml (48 h pre-incubation), E:T 30:1, 4 h, control RefMab33
# Excerpt: MEC-1 cells: chronic B-cell leukemia cell line DSMZ #ACC497; Cell Medium: Iscove's Modified Dulbecco's Medium (IMDM) with GlutaMAX™, Invitrogen, Cat No.: 31980-048, 20% FCS; PBMCs: RPMI1640, with stabile Glutamine, PAN Biotech GmbH, Cat No.: P04-13500 supplemented with 10% FCS; Biocoll: Biochrome AG CAT No.: L6115 LOT No.: 1050T; Bendamustine: Mundipharma LOT No.: 88018; FCS: PAN CAT No.: 3302-P282403 LOT No.: P282403; and RefmAb33 (anti-RSV) with same Fc region as MOR00208.
# The cytotoxicity of MOR00208 and bendamustine alone and in combination was tested in MEC-1 cells. BEN is an alkylating agent, therefore, functions via direct cytoxicity in MEC-1 cells. MOR00208 targets CD19 and additionally functions via ADCC in killing MEC-1 cells. For the following groups MEC-1 cell killing was measured: BEN at 100 μg/ml; MOR00208 at 6.6 pm and the combination of MOR00208 at 6.6 pm and BEN at 100 μg/ml. […] The following were used as controls: RefmAb33, or PBMCs alone. In both the BEN group and MOR00208+BEN combination group, MEC-1 cells were pre-incubated with BEN 48 hours prior to the ADCC assay measurements. The MEC-1 cells were stained using 1 mg/ml Calcein AM then counted and adjusted to 2×10^5/ml. The PBMCs were counted and adjusted to 6×10^6/ml. The cell killing assays were done as follows: using 96 well plates, a 100 μl cell suspension of MEC-1 cells was added per well, then 100 μl cell suspension of PBMCs was added to each well resulting in an E:T ratio of 30:1. The antibodies were diluted to 1 μg/ml in medium. Cells were centrifuged and re-suspended. To the target:effector cell-pellet, 100 μl antibody solution or according control solution was added. The mixture was incubated for 4 h in CO2-incubator at 37° C. The cell killing measurements were taken as follows: the incubated cell solution (˜100 μl) was transferred into FACS tubes and 200 μl FACS buffer (DPBS+3% FCS) and 0.5 μl PI stock solution was added to each tube. FACS-Calibur was used. Dead MEC-1 cells were stained with propidium iodide.
# The values represent % dead cells. Each experiment represents PBMCs from different donors. The controls used for each experiment was RefMab33.
# The values shown in Table 2 are calculated as follows: 1) from the raw data (% dead cells) shown in Table 1, the background (controls) were subtracted, resulting in the specific killing for each treatment group; then 2) the specific killing values were normalized by setting the combination of MOR00208+BEN to 1. The averages of Table 2 are depicted in FIG. 5.
# […] (CI) calculations were completed in order to determine synergy of the combination of the exemplified anti-CD19 antibody and bendamustine as compared to MOR00208 and BEN alone. Such calculations are described in Ting-Chao Chou, Theoretical Basis, Experimental Design, and Computerized Simulation of Synergism and Antagonism in Drug Combination Studies, Pharmacol Rev 58:621-681 (2006), which is incorporated by reference in its entirety and Chou T C, Talalay P, Quantitative analysis of dose-effect relationships: the combined effects of multiple drugs or enzyme inhibitors. Adv Enzyme Regul 22:27-55 (1984), which is incorporated by reference in its entirety. The methods of Chou-Talalay are carried out using the CI-isobol method.
# The median-effect equation models of the effect of an inhibitor (such as a drug) as Fa/Fu=(D/D50)^m, where D is the dose, Fa and Fu is the fraction of the system affected and unaffected by the dose D (Fa+Fu=1); D50 is the dose producing the median effect (e.g. IC50, ED50, LD50). The constant m determines the shape of the dose-effect curve. We used Excel Fit software to carry out a linear regression calculation to estimate the parameters m and D50.
# The effects of the combination on MEC-1 cells is measured % cell death as described above.
# [3] = target: T1, Human CD19; assay: cell-based or functional assay
Molecule,Median Survival (Days Post-Inoculation) ([1]; 13 mg/kg),Median % Increase in Lifespan (ILS) ([1]; 13 mg/kg) [%],Median Survival (Days Post-Inoculation) ([1]; 16 mg/kg),Median % Increase in Lifespan (ILS) ([1]; 16 mg/kg) [%],"Survival, pairwise comparison (Holm-Sidak) vs. Group 3 ([1]; Table 8)","Survival, pairwise comparison (Holm-Sidak) vs. Group 3 ([1]; untitled repeat of Table 8)",normalized specific killing ([2]; Average of experiments 1-3),% dead cells ([2]; Experiment 1 (PBMC donor)) [%],"normalized specific killing ([2]; Experiment 1, background subtracted)",% dead cells ([2]; Experiment 2 (PBMC donor)) [%],"normalized specific killing ([2]; Experiment 2, background subtracted)",% dead cells ([2]; Experiment 3 (PBMC donor)) [%],"normalized specific killing ([2]; Experiment 3, background subtracted)","EC50 ([2]; Homo sapiens, MEC1, read-out: EC50 (MEC-1 cell killing)) [µg/mL]","Bonferroni's Multiple Comparison Test Mean Diff. ([2]; normalized specific killing, monotherapy vs. BEN + MOR00208 combination)",EC50 of MEC-1 cell killing (ADCC with human PBMCs) [3] [pM]
"Cn1c(CCCC(=O)O)nc2cc(N(CCCl)CCCl)ccc21 [Bendamustine, reference compound]",24^b Days Post-Inoculation,−5.88,24^c Days Post-Inoculation,−5.88,No (No: There is no statistically significant difference (p ≥ 0.05).),No (No: There is no statistically significant difference (p ≥ 0.05).),0.8,83.6,0.85,53.3,0.75,75.6,0.85,~100,−0.1834,
"MOR00208 (antibody, human IgG1, kappa, V domains shown) VH: EVQLVESGGGLVKPGGSLKLSCAASGYTFTSYVMHWVRQAPGKGLEWIGYINPYNDGTKYNEKFQGRVTISSDKSISTAYMELSSLRSEDTAMYYCARGTYYYGTRVFDYWGQGTLVTVSS VL: DIVMTQSPATLSLSPGERATLSCRSSKSLQNVNGNTYLYWFQQKPGQSPQLLIYRMSNLNSGVPDRFSGSGSGTEFTLTISSLEPEDFAVYYCMQHLEYPITFGAGTKLEIKR",,,,,,,,,,,,,,,,~6.6

# Source: patent publication US20240366756A1, “COMBINATIONS AND USES THEREOF” (Incyte Corporation, priority 2011, published 2024)
